# Earlier results, collected in patent US20150313904A1 (Teva Pharmaceuticals Ltd., priority 2014, published 2015).
# System: Crohn's disease patients
# Settings: azathioprine-treated patients; Summers et al. 1979
compound,measurement,value
Cn1cnc([N+](=O)[O-])c1Sc1ncnc2nc[nH]c12 [azathioprine],time of maximum decrease in the mean CDAI score,9 weeks
